From patent US5712270A, “2-arylamidothiazole derivatives with CNS activity” (American Home Products Corporation, priority 1996, dated 1998)

What was measured:
[1] = system: scopolamine-induced hyperactivity; assay: Reversal of scopolamine-induced hyperactivity in mice (swim tank); format: in vivo, Male CFW mice; conditions: Mus musculus, ip, 5 min, 0.3 mg/kg scopolamine.HBr, i.p., mean swimming distance, read-out: minimum effective dose (MED), reversal of scopolamine hyperactivity
Protocol: The compound of Example 1 was also tested in accordance with the procedure of Symons et al, Soc. Neuroscience Abstracts 12:2, 897 (1986) in which Male CFW mice, 25 to 35 grams in weight are given the test compound in suitable vehicle plus 0.3 mg/kg scopoolamine.HBr in suitable vehicle, i.p.(3 groups of 12 animals each) or vehicle alone (1 group of 12 animals ) or vehicle plus scopolamine. HBr (1 group of 12 animals). The rates are placed in a swim tank, individually, containing 10 cm H2 O for a period of 5 minutes and the distance each animal swims is recorded.

[2] = system: memory in patients with mild to moderate Alzheimer's Disease; conditions: cited from earlier work; for memory improvement in patients: mild to moderate Alzheimer's Disease
[3] = system: serotonin 5-HT1A receptor; conditions: standard for anxiolytic activity; cited from earlier work

## CN(C)CCOC(=O)c1csc(NC(=O)c2cc(C(C)(C)C)c(O)c(C(C)(C)C)c2)n1 [Example 1, 2-[[3,5,-Bis(1,1-dimethylethl)-4-hydroxybenzoyl]amino]-4-thiazolecarboxylicacid 2-(dimethylamino)ethyl ester]
[1]
  minimal effective dose: 3 mg/kg

## COC(=O)C1=CCCN(C)C1 [arecoline]
[2]
  memory improvement in patients: memory improvement in patients with mild to moderate Alzheimer's Disease

## O=C1CC2(CCCC2)CC(=O)N1CCCCN1CCN(c2ncccn2)CC1 [buspirone]
[3]
  affinity for the 5-HT1A serotonin receptor subtype (words, buspirone): potent affinity

## Nc1c2c(nc3ccccc13)CCCC2 [tacrine]
[2]; especially at the higher doses
  side effects: adverse side effects especially at the higher doses
[2]
  memory improvement in patients: improvement in memory can be shown in patients with mild to moderate Alzheimer's Disease
